In ChEMBL document CHEMBL1201862, “PubChem BioAssay data set” (2004):
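Cells were grown in 96-well plates and exposed to each compound for 48 hours at five concentrations; endpoints were interpolated linearly between bracketing concentrations, or set to the highest concentration if not reached. The concentration for 50% growth inhibition is given as GI50.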 Active and inactive are the calls of the source. Rule as the data show it: active = GI50 up to about 1.1 µM and inactive = higher.

Columns and labels:
Experiment in all cases: DTP human tumour cell line panel, 48 h
[1] = system: SK-MEL-5
[2] = system: RPMI-8226
[3] = system: UO-31
[4] = system: A549
[5] = system: NCI-H522
[6] = system: UACC-257
[7] = system: KM12
[8] = system: HT-29
[9] = system: Hs-578T
[10] = system: SK-MEL-28
[11] = system: 786-0
[12] = system: IGROV-1
[13] = system: ACHN
[14] = system: MDA-MB-231
[15] = system: CAKI-1
[16] = system: SK-OV-3
[17] = system: SK-MEL-2
[18] = system: MOLT-4
[19] = system: SNB-75

Measured: GI50

CC(=O)NC(=O)/N=C1\NCCC(=O)N1CCc1c[nH]c2ccccc12
inactive: [1] > 100 µM | [2] > 100 µM | [3] > 100 µM | [4] > 100 µM | [5] > 100 µM | [6] > 100 µM | [7] > 100 µM | [8] > 100 µM | [9] > 100 µM | [10] > 100 µM | [11] > 100 µM | [12] > 100 µM | [13] > 100 µM | [14] > 100 µM | [15] > 100 µM | [16] > 100 µM | [17] > 100 µM | [18] > 100 µM

CN(C)CC(NC(NCS)C(=O)NCCNc1ccc(NCCNC(=O)C(NCS)NC(CN(C)C)OCCl)c2c1C(=O)c1c(O)ccc(O)c1C2=O)OCCl (centres undefined)
inactive: [17] 1.45 µM
active: [1] 0.113 µM | [2] 0.0016 µM | [19] 0.0318 µM | [3] 0.0331 µM | [4] < 0.001 µM | [6] 0.929 µM | [7] 0.172 µM | [8] 0.0261 µM | [9] 0.243 µM | [10] 0.0229 µM | [11] 0.0552 µM | [12] 0.145 µM | [13] < 0.001 µM | [14] 0.0547 µM | [15] < 0.001 µM | [16] 0.147 µM

CCOC(=O)C(C#N)C1=CC(=O)C(=O)c2ccc(OC)cc21 (centres undefined)
inactive: [1] 15.2 µM | [2] > 100 µM | [19] 20.8 µM | [3] 17.5 µM | [4] 19.7 µM | [5] 3.89 µM | [6] 17 µM | [7] 20 µM | [8] 31.6 µM | [9] 18.1 µM | [10] 21.3 µM | [11] 25.1 µM | [12] 19.9 µM | [13] 15.3 µM | [14] 14.6 µM | [15] 29 µM | [16] 18.4 µM | [17] 12.8 µM | [18] 48.5 µM

NC(=O)c1ncn(C2CCC(CP(=O)(O)O)C2)c1N (centres undefined)
inactive: [1] > 100 µM | [2] > 100 µM | [19] > 100 µM | [3] > 100 µM | [4] > 100 µM | [6] > 100 µM | [7] > 100 µM | [8] > 100 µM | [9] > 100 µM | [10] > 100 µM | [11] > 100 µM | [12] > 100 µM | [13] > 100 µM | [14] > 100 µM | [15] > 100 µM | [16] > 100 µM | [17] > 100 µM | [18] > 100 µM

CC(=O)N(CN1C(=O)CCC1C(=O)O)c1ccc(C)cc1 (centres undefined)
inactive: [1] > 100 µM | [2] > 100 µM | [19] > 100 µM | [3] > 100 µM | [4] > 100 µM | [5] > 100 µM | [6] > 100 µM | [7] > 100 µM | [8] > 100 µM | [9] > 100 µM | [10] > 100 µM | [11] > 100 µM | [12] > 100 µM | [13] > 100 µM | [14] > 100 µM | [15] > 100 µM | [16] > 100 µM | [17] > 100 µM | [18] > 100 µM

COC1=CC(=O)C2C(C1=O)C(c1ccc(OC)c(OC)c1)[C@H]2C (some centres undefined)
inactive: [1] 22.4 µM | [2] 14.6 µM | [19] > 100 µM | [3] > 100 µM | [4] > 100 µM | [5] 12.8 µM | [6] 18.6 µM | [7] > 100 µM | [8] 31.8 µM | [10] 20.3 µM | [11] 18 µM | [12] > 100 µM | [13] 18.7 µM | [15] 11.5 µM | [16] > 100 µM | [17] > 100 µM | [18] 7.71 µM

COC(C/C(=C/CO[Si](C(C)C)(C(C)C)C(C)C)C(=O)N(C(=O)OC(C)(C)C)c1ccccc1I)OC
active: [12] 0.0262 µM
inactive: [1] 56.2 µM | [2] 15.2 µM | [19] > 100 µM | [3] 42.1 µM | [4] 28.8 µM | [5] 2.77 µM | [6] 38.8 µM | [7] 41.9 µM | [8] > 100 µM | [9] 83.4 µM | [10] 67.3 µM | [11] 28.4 µM | [13] 45.9 µM | [14] > 10 µM | [15] 33.2 µM | [16] > 100 µM | [17] 17.8 µM | [18] 22.9 µM

CCOc1ccc(/C=C/c2cc(OC)c(OC)c(OC)c2)cc1
active: [1] 0.556 µM | [2] 0.601 µM | [19] 0.701 µM | [4] 1.08 µM | [5] 0.429 µM | [6] 0.658 µM | [7] 0.411 µM | [8] 0.653 µM | [10] 0.83 µM | [15] 0.564 µM
inactive: [3] 17.1 µM | [11] 3.05 µM | [12] 2.19 µM | [13] 1.56 µM | [16] 1.4 µM | [17] 1.23 µM | [18] 1.37 µM
